Source: patent US12570603B2, “FABP4/5 inhibitors, methods of use and methods of making” (Novius Therapeutics, LLC, priority 2021, dated 2026)

Legend:
[1] = system: LX-2 cells; test: Hepatic stellate cells activation assay (αSMA after TGF-β); type: cell-based, human; conditions: B4 0.1 to 5 μM versus untreated cells
Protocol: LX-2 cells were treated with compound for 6 h. then stimulated with TGF-β ([…]) for additional 24 h. Cells were fixed with 4% paraformaldehyde and immununostained with the fibrosis marker αSMA. Nuclei were stained with Dapi. Images and quantification of positive cells was done using Cytation5 (Agilent).

[2] = system: 3T3-L1 adipocytes; test: Lipolysis (glycerol release) in mature adipocytes; type: cell-based, mouse
Protocol: (§1) 3) 3T3-L1: Mouse 3T3-L1 cells were differentiated in culture according to ATCC protocol to become mature adipocytes. At day 6 of the differentiation, compound treatment started. Cells were stained by Nile Red on day and color intensity in each cell was measured relative to Dapi staining. Lipolysis was measured by measuring glycerol levels using lipolysis kit (Cayman, USA) according to the manufacturer manual.
(§2) 1) 3T3-L1: Mouse 3T3-L1 cells were differentiated in culture according to ATCC protocol to become mature adipocytes. At day 6 of the differentiation, compound treatment started. Cells were stained by Nile Red on day and color intensity in each cell was measured relative to Dapi staining. Lipolysis was measured by measuring glycerol levels using lipolysis kit (Cayman, USA) according to the manufacturer manual.

[3] = Level of B4 in serum and tissues after IP injection or oral gavage; type: in vivo, mice
Protocol: Male CD-1 mice (n=3) were treated with B4 either by IP injections (5 mg/kg) or by oral gavage (10 mg/kg). At times, 3, 6, and 24 hours after treatment, mice were euthanized and serum, liver, adipose, muscle and brain tissues were collected and analyzed to determine level of B4. Untreated mice were used as controls.

[4] = system: FABP5 together with PPARδ; test: Transcriptional activation assay in cells overexpressing FABP5, with PPARδ activator GW0742; type: cell-based; conditions: together with GW0742, FIG. 8
Protocol: (§3) COS-7 were cultured in 6-well plates and co-transfected with either a luciferase reporter driven by 3 copies of a PPRE and expression vector for either PPARδ, PPARα or PPARγ together with a vector harboring cDNA for β-galactosidase, serving as a transfection control. To test whether FABP4 or FABP5 mediate activation of their cognate receptors PPARγ and PPARδ, respectively, cells were also co-transfected with a plasmid harboring sequence of either FABP4 or FABP5. 18 h post-transfection, cells were placed in a serum-free medium and treated with agonist/compound. 18 h. later, cells were lysed, luciferase activity was assayed (Promega, WI, USA) and corrected for transfection efficiency by the activity of β-galactosidase.

[5] = system: HepG2 cells; test: Lipid uptake assay, oleic acid, Nile Red (steatosis model); type: cell-based, human; conditions: OA 1 mM
Protocol: 2) Hepg2 cells: 5000 cells were plated in 96-well plate. The next day cells were treated with tested compounds for 4 hours and then treated with 1 mM oleic acid for additional 24 hours. Cells were then stained with Nile Red and Dapi and lipid content was quantified using Cytation5 (Agilent).
2) Hepg2 cells: 5000 cells were plated in 96-well plate. The next day cells were treated with tested compounds for 4 hours and then treated with 1 mM oleic acid for additional 24 hours. Cells were then stained with Nile Red and Dapi and lipid content was quantified.

[6] = system: PPARδ; test: Transactivation assay, PPRE luciferase reporter in COS-7 cells; type: cell-based; conditions: compared to GW0742, FIG. 5
Protocol: as §3
(§4) COS-7 were cultured in 6-well plates and co-transfected with either a luciferase reporter driven by 3 copies of a PPRE and expression vector for either PPARδ, PPARα or PPARγ together with a vector harboring cDNA for β-galactosidase, serving as a transfection control. 18 h. post-transfection, cells were placed in a serum-free medium and treated with agonist/compound. 18 h. later, cells were lysed, luciferase activity was assayed (Promega, WI, USA) and corrected for transfection efficiency by the activity of β-galactosidase.

[7] = system: PPARγ; test: as above; type: cell-based; conditions: tested against rosiglitazone, FIG. 4
Protocol: as §3, §4

[8] = system: MB-231 shC and shF5 cells; test: Proliferation assay, MB-231 lines expressing control shRNA (shC) or FABP5 shRNA (shF5); type: cell-based; conditions: MB-231 shC vs shF5, different concentrations
Protocol: 2000 cells were plated in each well of 96-well plate. The next day cells were treated with compounds and incubated in Incucyte for 4 days. Images taken every 4 hours for the duration of the time were analyzed to calculate percentage of confluency in response to the treatments. Growth inhibition was calculated as 1−(percentage of viable cells out of untreated cells).

[9] = system: 3T3-L1 adipocytes; test: Lipid uptake during adipocyte maturation, Nile Red; type: cell-based, mouse; conditions: B4 from day 6, stained day 12
Protocol: as §1, §2

[10] = system: RAW264.7 murine macrophage cells; test: LPS-stimulated proinflammatory cytokine expression by QPCR; type: cell-based; conditions: B4 0 to 5 μM, then LPS 100 ng/ml
Protocol: (§5) Cells were treated with a compound for 6 h. then lysed and RNA was extracted using Trizol, according to the manufacturer's instructions. cDNA was generated using GeneAmp RNA PCR (Applied Biosystems). qPCR was carried out using TaqMan chemistry and Assays-on-Demand probes (Applied Biosystems). 18s (4352930) rRNA was used for normalization. Relative expression was calculated as 2^−ΔΔCT.
FIG. 33, FIG. 34, and FIG. 35 show the anti-inflammatory effects of compound B4 on RAW264.7 murine macrophage cells.

[11] = system: PPARδ targets PDPK1 and CD47 in TNBC cells MB-231; test: Real-time PCR of PPARδ targets; type: cell-based; conditions: MB-231, 1 μM, 6 hours
Protocol: as §5

[12] = IP Injection (0.35 μmole/mouse), 3 hr
[13] = IP Injection (0.35 μmole/mouse), 6 hr
[14] = IP Injection (0.35 μmole/mouse), 24 hr
[15] = Oral Gavage (0.71 μmole/mouse), 3 hr
[16] = Oral Gavage (0.71 μmole/mouse), 6 hr
[17] = Oral Gavage (0.71 μmole/mouse), 24 hr

## CC(C)Oc1cc(NC(=O)CSCC(=O)O)c(Cl)cc1Cl [Compound B4, 2-((2-((2,4-dichloro-5-isopropoxyphenyl)amino)-2-oxoethyl)thio)acetic acid]
[1]
  levels of α-SMA following activation by TGF-β: significantly lower than in untreated cells
[2]; basal
  basal lipolysis (glycerol release): inhibited basal lipolysis
[2]; isoproterenol-stimulated, relative to basal
  isoproterenol-stimulated lipolysis (glycerol release): more potent
[3]; [12]
  Drug Concentration, Adipose: 7.98 ± 3.82 µmol/kg
  Drug Concentration, Blood: 1910 ± 140 nM
  Drug Concentration, Brain: 0.15 ± 0.04 µmol/kg
  Drug Concentration, Liver: 7.05 ± 2.0 µmol/kg
  Drug Concentration, Muscle: 1.7 ± 0.8 µmol/kg
[3]; [13]
  Drug Concentration, Adipose: 2.45 ± 1.12 µmol/kg
  Drug Concentration, Blood: 1370 ± 120 nM
  Drug Concentration, Brain: 0.09 ± 0.01 µmol/kg
  Drug Concentration, Liver: 3.45 ± 1.49 µmol/kg
  Drug Concentration, Muscle: 1.07 ± 0.8 µmol/kg
[3]; [14]
  Drug Concentration, Adipose: 0.013 ± 0.006 µmol/kg
  Drug Concentration, Blood: 5.4 ± 2 nM
  Drug Concentration, Brain: 0.0003 ± 0.0002 µmol/kg
  Drug Concentration, Liver: 0.035 ± 0.016 µmol/kg
  Drug Concentration, Muscle: 0.008 ± 0.002 µmol/kg
[3]; [15]
  Drug Concentration, Adipose: 1.41 ± 0.002 µmol/kg
  Drug Concentration, Blood: 1240 ± 250 nM
  Drug Concentration, Brain: 0.1 ± 0.04 µmol/kg
  Drug Concentration, Liver: 8.93 ± 2.2 µmol/kg
  Drug Concentration, Muscle: 1.33 ± 0.74 µmol/kg
[3]; [16]
  Drug Concentration, Adipose: 1.38 ± 0.05 µmol/kg
  Drug Concentration, Blood: 980 ± 500 nM
  Drug Concentration, Brain: 0.09 ± 0.04 µmol/kg
  Drug Concentration, Liver: 6.47 ± 2.3 µmol/kg
  Drug Concentration, Muscle: 0.95 ± 0.45 µmol/kg
[3]; [17]
  Drug Concentration, Adipose: 0.11 ± 0.05 µmol/kg
  Drug Concentration, Blood: 7.2 ± 2 nM
  Drug Concentration, Brain: 0.0009 ± 0.0007 µmol/kg
  Drug Concentration, Liver: 0.035 ± 0.013 µmol/kg
  Drug Concentration, Muscle: 0.014 ± 0.018 µmol/kg
[3]; male CD-1 mice, IP 5 mg/kg or oral gavage 10 mg/kg, after 24 hours
  clearance from serum and tissues: cleared from the serum and tissues
[4]
  inhibition of PPARδ activity in cells overexpressing FABP5: inhibit activity of the nuclear receptors only in cells that express the binding proteins
[5]; B4 0.1 to 5 μM
  uptake of lipids into hepatocytes (Nile Red): prevented uptake of lipids into hepatocytes
[5]; B4 treated cells
  size of the lipid droplets: significantly smaller droplets
[6]
  activation of transcription by PPARδ: did not active transcription
[7]
  activation of transcription by PPARγ: did not activate transcription
[8]
  TNBC cell growth, shC versus shF5: suppressed TNBC cell growth only in the cells highly expressing FABP5
[9]
  lipid droplets in adipocytes (Nile Red): fewer LD within the cells
[10]
  IL-1β mRNA level: lower in the treated cells
  IL-6 mRNA level: lower in the treated cells
  TNFα mRNA level: lower in the treated cells
[11]
  levels of endogenous PPARδ targets PDPK1 and CD47: significantly lower
